Measurements: US20160002226A1, “PYRI[…] AND THEIR USE IN THE TREATMENT, AMELIORATION OR PREVENTION OF INFLUENZA” (F. Hoffmann-La Roche AG, priority 2014, published 2016)

system: influenza A virus A/Aichi/2/68 (H3N2) on MDCK cells; assay: Cytopathic effect (CPE) assay; assay type: cell-based; conditions: Influenza A virus, 48 hrs, the 2nd table

SMILES	IC50
CC(C)N1CCn2c(CN(Cc3cccc4ccccc34)C(=O)C3CC(F)(F)C3)cc(=O)c(O)c2C1=O	> 50000 nM
CC(C)N1CCn2c(CN(Cc3ccccc3-c3ccccc3)C(=O)C3CC(F)(F)C3)cc(=O)c(O)c2C1=O	> 50000 nM
CC(C)N1CCn2c(CNCc3ccccc3-c3ccccc3)cc(=O)c(O)c2C1=O	> 50000 nM

target: whole RNP complex of IAV strain A/PR/8/34 (Influenza A virus, UniProt P03433); assay: Transcription assay (TA assay); assay type: biochemical; conditions: RNPs of A/PR/8/34, capped RNA substrate

SMILES	IC50
CC(C)N1CCn2c(CN(Cc3cccc4ccccc34)C(=O)C3CC(F)(F)C3)cc(=O)c(O)c2C1=O	253 nM
CC(C)N1CCn2c(CN(Cc3ccccc3-c3ccccc3)C(=O)C3CC(F)(F)C3)cc(=O)c(O)c2C1=O	229 nM
CC(C)N1CCn2c(CNCc3ccccc3-c3ccccc3)cc(=O)c(O)c2C1=O	535 nM
